According to patent US7371555B2, “Polypeptides having α-H-α-amino acid amide racemase activity and nucleic acids encoding the same” (DSM IP Assets B.V., priority 2002, dated 2008):

Experiments:
[1] = Stability of substrate in chemical blanks (HEPES-NaOH buffer without cells); type: physicochemical; conditions: HEPES-NaOH buffer pH 7.7, 139 hours, concentration constant (0.7 w/w %)
Procedure: 1 ml Of disintegrated cells of each of the three strains was incubated in a HEPES-NaOH buffer (20 mM) pH 7.7, to which pyridoxal-5-phosphate (0.01 mM) was added as a cofactor and D-leucine amide (60.8 mM) as a substrate in a total volume of 10 ml (0.79 w/w % D-leucine amide). After 0 and 139 hours 1 ml samples were taken (of which the exact weight was measured) and the reaction in these samples was stopped by adding 1 ml methanol (of which the exact weight was measured too; to be able to calculate dilution factors). Stopped reaction mixtures were centrifuged to remove particulates. The supernatants were frozen at −86° C. until HPLC analysis according to the method given in Example 1. […]
From the table it can be seen that α-H-α-amino acid amide racemase activity is present in the disintegrated cells of Agrobacterium rhizogenes Na, Agrobacterium rhizogenes Bi and Arthrobacter nicotianae as D-leucine amide is converted into L-leucine; this conversion is not detected in the chemical blanks. In the chemical blanks no D-leucine or L-leucine could be detected even after 139 hours; the D-leucine amide concentration was constant (0.7 w/w %) meaning that D-leucine amide is very stable under the applied reaction conditions.

[2] = test system: disintegrated cells of Agrobacterium rhizogenes Bi; assay: α-H-α-amino acid amide racemase activity test with disintegrated cells; type: biochemical; conditions: incubation time 139 h; 0.79 w/w % D-leucine amide
Procedure: (§1) After growth of these three strains in Medium A containing 2 g/l of D-α-amino-ε-caprolactam, cells were harvested by centrifugation at 12,000×g. After centrifugation the supernatant was decanted and the wet weight of the pellet was measured. To the pellet, sonification buffer (NaCl, 16 g/l; KCl, 0.74 g/l; Na2HPO4, 0.27 g/l; glucose, 2 g/l; HEPES, 10 g/l, pH 7.0) was added in a 1:2 ratio (wet weight cell pellet:ml buffer). During storage between cell harvest and sonification the pellet was frozen in the sonification buffer at −86° C.
(§2) Sonification was performed with a Soniprep 150 of MSE at maximal amplitude of 20 microns in periods of 10 min. using time intervals of 10 sec. (i.e., 10 sec. sonification, 10 sec. cooling down), cooling the sample on ice/acetone. Each 10 min. the cells were viewed microscopically. The sonification procedure was stopped when >70% of the cells were broken.
(§3) 1 ml Of disintegrated cells of each of the three strains was incubated in a HEPES-NaOH buffer (20 mM) pH 7.7, to which pyridoxal-5-phosphate (0.01 mM) was added as a cofactor and D-leucine amide (60.8 mM) as a substrate in a total volume of 10 ml (0.79 w/w % D-leucine amide). After 0 and 139 hours 1 ml samples were taken (of which the exact weight was measured) and the reaction in these samples was stopped by adding 1 ml methanol (of which the exact weight was measured too; to be able to calculate dilution factors). Stopped reaction mixtures were centrifuged to remove particulates. The supernatants were frozen at −86° C. until HPLC analysis according to the method given in Example 1.

[3] = test system: disintegrated cells of Agrobacterium rhizogenes Na; assay: as above; type: biochemical; conditions: incubation time 139 h; 0.79 w/w % D-leucine amide
Procedure: as §1, §2, §3

[4] = test system: disintegrated cells of Arthrobacter nicotianae; assay: as above; type: biochemical; conditions: incubation time 139 h; 0.79 w/w % D-leucine amide
Procedure: as §1, §2, §3

[5] = test system: E. coli DH10B/pOA(1)PLV49B10 cells containing the α-H-α-amino acid amide racemase gene from Ochrobactrum anthropi IA; assay: Racemase activity test with D-leucine amide and whole E. coli cells (Example 5); type: cell-based; conditions: Strain A
Procedure: A single colony of E. coli DH10B containing plasmid pOA(1)PLV49B10 was transferred to LB medium with kanamycin (50 mg/l) to prepare a pre-culture. After overnight incubation at 28° C. and 200 rpm, this pre-culture was used to inoculated a flask with 500 ml of 2*TY medium (10 g/l Yeast extract, 16 g/l Tryptone, 5 g/l NaCl) containing kanamycin (50 mg/l). After overnight growth at 28° C. (OD620nm=4.4) and 200 rpm, cells were harvested by centrifugation (15 min. at 6,200×g, 4° C.), and washed with 50 mM HEPES-NaOH buffer of pH 7.7.
The cell pellets from both cultures were subsequently washed and resuspended in 25 ml of 50 mM HEPES-NaOH buffer, pH 7.7. Aliquots of 2 ml of both cell suspensions were centrifuged once more and the pellets were stored at −20° C. until execution of the activity tests described below. The remaining part of these cell suspensions was stored at −20° C. for use in Example 6.
To determine the activity of E. coli/pOA(1)PLV49B10 and the E. coli control, the above-mentioned cell pellets were thawed and resuspended to a total volume of 1 ml with 50 mM HEPES-NaOH buffer, pH 7.7. Then, reaction mixtures of 10 ml each were prepared containing 50 mM HEPES-NaOH buffer (pH 7.7), 10 μM pyridoxal-5-phosphate (PLP), 2.5 wt % of D-leucine amide, if applicable 20 mM of EDTA to suppress the E. coli amidase activity, and 0.5 ml of the E. coli/pOA(1)PLV49B10 and E. coli DH10B/pZErO-GFPuv-wrong-orientation cell suspensions or water (for chemical blanks). Reactions were started by the addition of the cells. Reaction mixtures were incubated at 30° C. and 175 rpm. Directly after addition of the cells (t=0 hours) and after 27 and 43 hours samples were taken in which the reaction was stopped by removal of the cells via centrifugation followed by 0.22 μM filtration. Finally, the filtered samples were stored at −20° C. until analysis by chiral HPLC as described below: • column: Sumichiral OA5000 from Sumika (150×4.6 mm I.D., 5μ)+guard column • eluent: 85 v/v % 2 mM CuSO4+15 v/v % methanol • flow: 1.0 ml/min. • column temp.: 40° C. • inj. volume: 5 μl • detection: fluorescence detection after post-column reaction with o-phthalaldehyde and 2-mercaptoethanol (wavelength ex=338 nm and em>420 nm)

[6] = with 20 mM EDTA, incubation time 27 h
[7] = with 20 mM EDTA, incubation time 43 h
[8] = without 20 mM EDTA, incubation time 27 h
[9] = without 20 mM EDTA, incubation time 43 h

CC(C)C[C@@H](N)C(N)=O [D-leucine amide]
stability under the applied reaction conditions [1]: very stable
D-leucine [2]: 0.013 w/w %
D-leucine amide [2]: 0.61 w/w %
L-leucine [2]: 0.025 w/w %
D-leucine [3]: 0.036 w/w %
D-leucine amide [3]: 0.51 w/w %
L-leucine [3]: 0.078 w/w %
D-leucine [4]: 0.002 w/w %
D-leucine amide [4]: 0.56 w/w %
L-leucine [4]: 0.068 w/w %
D-leucine amide ([5]; with 20 mM EDTA, incubation time 0 h): 2.61 wt %
D-leucine [5, 6]: 0.003 wt %
D-leucine amide [5, 6]: 1.77 wt %
L-leucine [5, 6]: 0.313 wt %
L-leucine amide [5, 6]: 0.555 wt %
D-leucine [5, 7]: 0.006 wt %
D-leucine amide [5, 7]: 1.59 wt %
L-leucine [5, 7]: 0.345 wt %
L-leucine amide [5, 7]: 0.772 wt %
D-leucine amide ([5]; without 20 mM EDTA, incubation time 0 h): 2.63 wt %
D-leucine [5, 8]: 0.009 wt %
D-leucine amide [5, 8]: 1.03 wt %
L-leucine [5, 8]: 1.71 wt %
L-leucine amide [5, 8]: 0.170 wt %
D-leucine [5, 9]: 0.017 wt %
D-leucine amide [5, 9]: 0.512 wt %
L-leucine [5, 9]: 2.12 wt %
L-leucine amide [5, 9]: 0.063 wt %
